The values that follow come from patent US20140179664A1, “Heterocyclyl Pyrimidine Analogues As JAK Inhibitors” (Cellzome Limited, priority 2011, published 2014).

In one assay the target is T1, JAK1 (Homo sapiens, UniProt P23458).
T1 construct: endogenous in cells; host or cells: Molt4 (ATCC CRL-1582) and Ramos (ATCC CRL-1596), mixed lysate 1:2
The assay can be described thus: Kinobeads assay, JAK1. Type of assay: binding. To be noted: mixed Molt4/Ramos lysate, read-out: Inhibition values (IC50) JAK1. The procedure, abridged: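 Mixed Molt4/Ramos cell lysate (1:2) was incubated 3 hours in the cold with kinobeads and a 9-step 1:3 compound dilution series. The no-compound control carried 2% DMSO. Bead-bound JAK1 was eluted, detected by antibody dot blot with infrared fluorescence, and IC50 derived from dose-response curves.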

Assay [1] relates to STAT5 phosphorylation downstream of JAK3 in human YT cells. As to the kind of experiment: pSTAT5 cell assay (IL-2 stimulated YT cells, AlphaScreen). Conditions: IL-2 stimulation, read-out: Inhibition values (IC50) pSTAT5. It counts as cell-based. The text has this:
STAT5 phosphorylation represents one of the proximal events in the signalling cascade downstream of JAK3 activation. Therefore STAT5 phosphorylation is an appropriate readout to assess the mechanistic effect of JAK3 inhibition. Stimulation of human YT cells, an NK-like cell line, with interleukin-2 (IL-2) results in phosphorylation of STAT5 at tyrosine residue 694 (Tyr694) that can be quantitatively measured by immunodetection with specific antibodies and an appropriate detection method, in this case AlphaScreen assay technology.
Human YT cells were grown in RPMI medium (Lonza, BE12-167) with 2 mM L-Glutamine (Invitrogen, 25030-024) and 10% heat-inactivated FBS (Invitrogen, 10106-169) and kept in a humidified incubator (37° C., 5% CO2). Cells were harvested by centrifugation, washed once with HBSS (Invitrogen, 14180-046), resuspended in HBSS at 1.5×10^6 cells/ml and 0.9×10^4 cells were seeded in 6 μl per well in a 96 well White plate (PerkinElmer, 6005569).
Test compounds were dissolved in DMSO and a 1:3 dilution series (9 steps) was prepared. To generate a dose response curve, 3 μl of fourfold concentrated compound in 4% DMSO/HBSS were added to each cell sample in the 96 well plate resulting in a final DMSO concentration of 1% DMSO. Cells were incubated for one hour in a humidified incubator (37° C., 5% CO2). To each well 3 μl of a fourfold concentrated IL-2 solution (Recombinant human IL-2, Peprotech 200-02; 120 nM solution in HBSS) was added and incubated for 30 minutes at room temperature. Cells were lysed by adding 3 μl of 5× lysis buffer (SureFire lysis buffer; Perkin Elmer, TGRS5S10K) and incubated for 10 minutes at room temperature with gentle shaking
For signal detection by AlphaScreen® technology the SureFire phospho-STAT5 (Tyr694/Tyr699) kit was used according to instructions provided by the manufacturer (Perkin Elmer, TGRS5S10K). Acceptor beads were added as recommended by the manufacturer (Reactivation buffer/Activation buffer/Acceptor beads at a ratio of 40:10:1) and incubated at room temperature for 1.5 hours with gentle shaking Then donor beads were added as recommended (Dilution buffer/Donor beads at a ratio of 20:1) and incubated at room temperature for 1.5 hours with gentle shaking Plates were read on an Envision instrument (Perkin Elmer) with the AlphaScreen protocol. Data were analysed in BioAssay using the nonlinear regression for a sigmoidal dose-response with a variable slope.
A general note: Alpha assays give light when donor and acceptor beads are brought close together.

T1 sequence (P23458 whole entry): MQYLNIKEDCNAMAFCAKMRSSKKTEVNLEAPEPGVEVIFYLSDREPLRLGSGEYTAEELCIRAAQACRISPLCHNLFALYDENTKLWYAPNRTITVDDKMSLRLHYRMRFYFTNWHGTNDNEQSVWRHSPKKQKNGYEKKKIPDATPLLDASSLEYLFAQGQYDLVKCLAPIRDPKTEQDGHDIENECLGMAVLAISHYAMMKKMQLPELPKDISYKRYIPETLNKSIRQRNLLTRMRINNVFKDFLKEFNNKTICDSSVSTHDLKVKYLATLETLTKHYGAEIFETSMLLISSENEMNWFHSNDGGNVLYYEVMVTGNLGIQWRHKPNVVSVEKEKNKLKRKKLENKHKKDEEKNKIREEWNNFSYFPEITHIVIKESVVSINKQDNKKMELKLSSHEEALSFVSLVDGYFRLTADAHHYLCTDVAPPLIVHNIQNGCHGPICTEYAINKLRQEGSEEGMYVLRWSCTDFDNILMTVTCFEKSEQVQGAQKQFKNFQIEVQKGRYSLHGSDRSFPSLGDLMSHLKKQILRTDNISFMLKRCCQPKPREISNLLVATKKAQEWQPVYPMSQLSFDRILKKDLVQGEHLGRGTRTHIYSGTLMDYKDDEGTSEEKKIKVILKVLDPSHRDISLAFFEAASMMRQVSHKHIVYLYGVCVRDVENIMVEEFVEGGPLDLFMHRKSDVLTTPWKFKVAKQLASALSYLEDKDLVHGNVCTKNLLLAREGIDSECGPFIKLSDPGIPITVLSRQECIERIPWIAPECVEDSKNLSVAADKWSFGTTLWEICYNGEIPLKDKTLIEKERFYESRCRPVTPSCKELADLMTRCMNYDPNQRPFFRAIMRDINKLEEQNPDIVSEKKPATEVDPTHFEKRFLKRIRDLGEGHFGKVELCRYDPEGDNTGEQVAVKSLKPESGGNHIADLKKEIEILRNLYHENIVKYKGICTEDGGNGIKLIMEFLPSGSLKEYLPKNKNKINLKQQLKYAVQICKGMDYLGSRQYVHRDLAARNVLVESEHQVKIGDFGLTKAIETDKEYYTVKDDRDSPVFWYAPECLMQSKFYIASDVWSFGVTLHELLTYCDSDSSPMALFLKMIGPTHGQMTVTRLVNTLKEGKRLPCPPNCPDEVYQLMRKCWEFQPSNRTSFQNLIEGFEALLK

A word on the IC50: it is the concentration needed to halve the response being measured. For the compound `CNC(=O)Cn1cc(Nc2ncc(Cl)c(N[C@H](CO)c3ccccc3)n2)cn1` [Compound 23, (S)-2-(4-((5-chloro-4-((2-hydroxy-1-phenylethyl)amino)pyrimidin-2-yl)amino)-1H-pyrazol-1-yl)-N-methylacetamide], the IC50 lay in the range of 100 to 1000 nM on JAK1 and 250 to 1000 nM in assay [1].

In the case of `CN(C)C(=O)Cn1cc(Nc2ncc(Cl)c(N[C@H](CO)c3ccccc3)n2)cn1` [Compound 30], the IC50 was 100 to 1000 nM on JAK1 and 250 to 1000 nM in assay [1].

In the case of `CC(C)NC(=O)Cn1cc(Nc2ncc(Cl)c(N[C@H](CO)c3ccccc3)n2)cn1` [Compound 67], the IC50 at JAK1 fell in the range of 100 to 1000 nM; in assay [1] it was 250 to 1000 nM.

With `O=C(Cn1cc(Nc2ncc(Cl)c(N[C@H](CO)c3ccccc3)n2)cn1)NC1CC1` [Compound 68], the half-inhibitory concentration (IC50) at JAK1 fell in the range of 100 to 1000 nM; in assay [1] it was 250 to 1000 nM.

With `OC[C@@H](Nc1nc(Nc2cn[nH]c2)ncc1Cl)c1ccccc1` [Compound 75], the half-inhibitory concentration (IC50) was in the range of 1000 to 10000 nM at JAK1 and 250 to 1000 nM in assay [1].

For `NC(=O)Cn1cc(Nc2ncc(Cl)c(N[C@H](CO)c3ccccc3F)n2)cn1` [Compound 78], the half-maximal inhibitory concentration (IC50) is below 100 nM at JAK1 and below 250 nM in assay [1].
